According to US11420958B2, “Aryl and heteroaryl substituted indole compounds” (BRISTOL-MYERS SQUIBB COMPANY, priority 2017, dated 2022):

Key:
Type in all cases: cell-based
[1] = target: human TLR8 (Homo sapiens (Human), UniProt Q9NR97); experiment: TLR8 inhibition reporter assay (HEK-Blue, SEAP); conditions: HEK-Blue cells overexpressing human TLR8, R848 15.9 μM stimulation
Method in brief: (§1)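 Percent inhibition of agonist-induced SEAP secretion was scored against DMSO-only and reference-inhibitor controls. Stimulation lasted 22 h at 37 °C following 30 min compound pre-exposure (0.05 nM–50 μM); ligands were gardiquimod 7.5 μM, R848 15.9 μM and ODN2006 5 nM for TLR7, 8 and 9.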

[2] = target: human TLR7 (Homo sapiens (Human), UniProt Q9NYK1); experiment: TLR7 inhibition reporter assay (HEK-Blue, SEAP); conditions: HEK-Blue cells overexpressing human TLR7, gardiquimod 7.5 μM stimulation
Chain of human TLR7 (Q9NYK1 27-1049): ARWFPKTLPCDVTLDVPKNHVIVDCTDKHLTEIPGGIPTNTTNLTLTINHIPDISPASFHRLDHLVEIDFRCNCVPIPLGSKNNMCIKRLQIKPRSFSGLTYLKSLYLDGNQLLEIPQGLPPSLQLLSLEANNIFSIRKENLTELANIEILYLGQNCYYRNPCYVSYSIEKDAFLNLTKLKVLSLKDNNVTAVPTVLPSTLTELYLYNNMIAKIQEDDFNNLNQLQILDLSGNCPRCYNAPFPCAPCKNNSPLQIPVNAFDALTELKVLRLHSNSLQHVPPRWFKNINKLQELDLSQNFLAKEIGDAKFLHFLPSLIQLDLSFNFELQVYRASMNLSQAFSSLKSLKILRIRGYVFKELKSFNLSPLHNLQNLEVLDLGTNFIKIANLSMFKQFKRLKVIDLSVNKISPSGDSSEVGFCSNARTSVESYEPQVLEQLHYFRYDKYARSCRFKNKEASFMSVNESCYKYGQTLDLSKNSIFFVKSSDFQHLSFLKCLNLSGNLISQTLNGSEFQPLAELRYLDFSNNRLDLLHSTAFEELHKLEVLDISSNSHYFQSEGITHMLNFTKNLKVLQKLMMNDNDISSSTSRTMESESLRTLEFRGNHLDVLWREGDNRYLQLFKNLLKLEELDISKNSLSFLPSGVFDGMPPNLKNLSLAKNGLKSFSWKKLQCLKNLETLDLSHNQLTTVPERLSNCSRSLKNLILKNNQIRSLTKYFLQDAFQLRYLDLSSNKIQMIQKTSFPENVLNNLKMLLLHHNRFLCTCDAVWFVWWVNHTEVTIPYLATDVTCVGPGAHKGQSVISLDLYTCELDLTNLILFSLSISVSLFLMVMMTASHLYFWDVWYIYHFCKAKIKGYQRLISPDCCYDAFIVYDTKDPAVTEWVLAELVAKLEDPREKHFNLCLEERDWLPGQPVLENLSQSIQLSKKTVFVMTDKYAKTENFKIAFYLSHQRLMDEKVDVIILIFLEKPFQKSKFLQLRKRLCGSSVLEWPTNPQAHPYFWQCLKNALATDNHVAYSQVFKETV
Method in brief: as §1

[3] = target: human TLR9 (Homo sapiens (Human), UniProt Q9NR96); experiment: TLR9 inhibition reporter assay (HEK-Blue, SEAP); conditions: HEK-Blue cells overexpressing human TLR9, ODN2006 5 nM stimulation
Chain of human TLR9 (Q9NR96 26-1032): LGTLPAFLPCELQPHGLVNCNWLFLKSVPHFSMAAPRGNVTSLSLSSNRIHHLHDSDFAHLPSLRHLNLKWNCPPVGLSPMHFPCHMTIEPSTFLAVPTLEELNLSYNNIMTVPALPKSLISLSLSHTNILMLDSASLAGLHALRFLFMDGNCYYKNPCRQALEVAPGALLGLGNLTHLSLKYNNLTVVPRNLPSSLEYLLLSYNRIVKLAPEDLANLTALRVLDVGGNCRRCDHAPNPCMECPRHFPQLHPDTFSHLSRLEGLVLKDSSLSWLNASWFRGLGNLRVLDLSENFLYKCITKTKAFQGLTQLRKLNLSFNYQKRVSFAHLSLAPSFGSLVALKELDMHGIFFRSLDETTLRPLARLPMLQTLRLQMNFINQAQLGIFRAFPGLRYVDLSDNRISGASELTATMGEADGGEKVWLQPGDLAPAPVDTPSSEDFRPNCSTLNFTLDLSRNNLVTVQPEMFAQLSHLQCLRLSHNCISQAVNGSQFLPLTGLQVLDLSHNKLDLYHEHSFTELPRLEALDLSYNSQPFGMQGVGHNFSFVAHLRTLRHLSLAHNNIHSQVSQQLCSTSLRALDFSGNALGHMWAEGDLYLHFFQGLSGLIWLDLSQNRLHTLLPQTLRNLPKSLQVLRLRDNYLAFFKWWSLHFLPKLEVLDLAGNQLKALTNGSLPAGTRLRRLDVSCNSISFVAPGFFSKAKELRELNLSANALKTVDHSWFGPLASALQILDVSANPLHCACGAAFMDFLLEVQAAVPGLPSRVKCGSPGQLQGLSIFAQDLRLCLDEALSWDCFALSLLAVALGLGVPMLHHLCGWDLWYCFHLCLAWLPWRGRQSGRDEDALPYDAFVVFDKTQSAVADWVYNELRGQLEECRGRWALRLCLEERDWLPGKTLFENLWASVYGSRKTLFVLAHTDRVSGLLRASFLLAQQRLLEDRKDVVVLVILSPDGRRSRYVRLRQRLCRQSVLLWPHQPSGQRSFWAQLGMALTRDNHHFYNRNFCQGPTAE
Method in brief: as §1

Chain of human TLR8 (Q9NR97 27-1041): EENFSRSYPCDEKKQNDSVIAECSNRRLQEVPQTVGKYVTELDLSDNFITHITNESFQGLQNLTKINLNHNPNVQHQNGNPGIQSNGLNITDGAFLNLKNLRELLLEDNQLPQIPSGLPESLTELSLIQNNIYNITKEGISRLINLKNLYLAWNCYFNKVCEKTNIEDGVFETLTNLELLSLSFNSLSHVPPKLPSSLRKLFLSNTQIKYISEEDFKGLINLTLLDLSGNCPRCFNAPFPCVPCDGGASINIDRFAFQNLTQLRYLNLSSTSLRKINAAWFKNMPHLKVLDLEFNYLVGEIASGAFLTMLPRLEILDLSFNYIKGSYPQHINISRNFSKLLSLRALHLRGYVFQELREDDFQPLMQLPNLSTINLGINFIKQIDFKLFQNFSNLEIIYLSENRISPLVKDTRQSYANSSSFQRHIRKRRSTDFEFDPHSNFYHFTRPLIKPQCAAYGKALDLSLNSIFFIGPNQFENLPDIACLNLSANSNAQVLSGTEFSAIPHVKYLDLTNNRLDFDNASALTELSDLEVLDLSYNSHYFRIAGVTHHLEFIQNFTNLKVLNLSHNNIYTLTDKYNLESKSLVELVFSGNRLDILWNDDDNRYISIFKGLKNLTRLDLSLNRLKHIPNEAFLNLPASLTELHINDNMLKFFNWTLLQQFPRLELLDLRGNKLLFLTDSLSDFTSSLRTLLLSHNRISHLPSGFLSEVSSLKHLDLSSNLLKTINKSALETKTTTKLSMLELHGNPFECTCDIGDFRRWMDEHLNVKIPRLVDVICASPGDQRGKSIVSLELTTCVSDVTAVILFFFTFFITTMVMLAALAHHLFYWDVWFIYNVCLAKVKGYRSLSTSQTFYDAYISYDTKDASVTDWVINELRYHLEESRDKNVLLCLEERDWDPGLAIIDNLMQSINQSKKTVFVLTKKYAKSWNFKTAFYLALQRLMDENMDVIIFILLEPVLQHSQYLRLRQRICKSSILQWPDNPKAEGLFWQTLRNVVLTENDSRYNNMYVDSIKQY

IC50 [1]	IC50 [2]	IC50 [3]	SMILES
11 nM	125 nM	611 nM	CC(C)c1c(-c2ccnc3[nH]ncc23)[nH]c2ccc(-c3nnc(C4CCNCC4)o3)cc12 [Example 102, 2-(3-isopropyl-2-(1H-pyrazolo[3,4-b]pyridin-4-yl)-1H-indol-5-yl)-5-(piperidin-4-yl)-1,3,4-oxadiazole]
5.4 nM	54 nM	166 nM	CC(C)c1c(-c2ccnc3[nH]ncc23)[nH]c2ccc(-c3nnc([C@@H]4CCCNC4)o3)cc12 [Example 103, (R)-2-(3-isopropyl-2-(1H-pyrazolo[3,4-b]pyridin-4-yl)-1H-indol-5-yl)-5-(piperidin-3-yl)-1,3,4-oxadiazole]
1.7 nM	31 nM	150 nM	CC(C)c1c(-c2ccnc3[nH]ncc23)[nH]c2ccc(-c3nnc(C[C@@H]4CCCN4)o3)cc12 [Example 104, (S)-2-(3-isopropyl-2-(1H-pyrazolo[3,4-b]pyridin-4-yl)-1H-indol-5-yl)-5-(pyrrolidin-2-ylmethyl)-1,3,4-oxadiazole]
8.8 nM	19 nM	1070 nM	COc1ccc(-c2[nH]c3ccc(-c4nnc(N5CCNCC5)o4)cc3c2C(C)C)cc1OC [Example 105, 2-(2-(3,4-dimethoxyphenyl)-3-isopropyl-1H-indol-5-yl)-5-(piperazin-1-yl)-1,3,4-oxadiazole]
45 nM	138 nM	1710 nM	COc1ccc(-c2[nH]c3ccc(-c4nnc(C5CCN(Cc6ccccc6)CC5)[nH]4)cc3c2C(C)C)cc1OC [Example 106, 5-(5-(1-benzylpiperidin-4-yl)-4H-1,2,4-triazol-3-yl)-2-(3,4-dimethoxyphenyl)-3-isopropyl-1H-indole]
23 nM	228 nM	2210 nM	COc1ccc(-c2[nH]c3ccc(-c4nnc(CN5CC6CNCC6C5)o4)cc3c2C(C)C)cc1OC (stereo not drawn) [Example 107, 2-(2-(3,4-dimethoxyphenyl)-3-isopropyl-1H-indol-5-yl)-5-((hexahydropyrrolo[3,4-c]pyrrol-2(1H)-yl)methyl)-1,3,4-oxadiazole]
220 nM	1980 nM	> 50000 nM	COc1ccc(-c2[nH]c3ccc(-c4nnc(CNCCNC(C)=O)o4)cc3c2C(C)C)cc1OC [Example 108, N-(2-(((5-(2-(3,4-dimethoxyphenyl)-3-isopropyl-1H-indol-5-yl)-1,3,4-oxadiazol-2-yl)methyl)amino)ethyl)acetamide]
301 nM	4160 nM	> 50000 nM	COCCNCc1nnc(-c2ccc3[nH]c(-c4ccc(OC)c(OC)c4)c(C(C)C)c3c2)o1 [Example 109, N-((5-(2-(3,4-dimethoxyphenyl)-3-isopropyl-1H-indol-5-yl)-1,3,4-oxadiazol-2-yl)methyl)-2-methoxyethan-1-amine]
734 nM	917 nM	> 50000 nM	C#CCNCc1nnc(-c2ccc3[nH]c(-c4ccc(OC)c(OC)c4)c(C(C)C)c3c2)o1 [Example 110, N-((5-(2-(3,4-dimethoxyphenyl)-3-isopropyl-1H-indol-5-yl)-1,3,4-oxadiazol-2-yl)methyl)prop-2-yn-1-amine]
266 nM	157 nM	> 50000 nM	CCOCCNCc1nnc(-c2ccc3[nH]c(-c4ccc(OC)c(OC)c4)c(C(C)C)c3c2)o1 [Example 111, N-((5-(2-(3,4-dimethoxyphenyl)-3-isopropyl-1H-indol-5-yl)-1,3,4-oxadiazol-2-yl)methyl)-2-ethoxyethan-1-amine]
82 nM	38 nM	> 50000 nM	COc1ccc(-c2[nH]c3ccc(-c4nnc(CNCCOCCO)o4)cc3c2C(C)C)cc1OC [Example 112, 2-(2-(((5-(2-(3,4-dimethoxyphenyl)-3-isopropyl-1H-indol-5-yl)-1,3,4-oxadiazol-2-yl)methyl)amino)ethoxy)ethan-1-ol]
222 nM	219 nM	> 50000 nM	COc1ccc(-c2[nH]c3ccc(-c4nnc(CNCCS(=O)(=O)O)o4)cc3c2C(C)C)cc1OC [Example 113, 2-(((5-(2-(3,4-dimethoxyphenyl)-3-isopropyl-1H-indol-5-yl)-1,3,4-oxadiazol-2-yl)methyl)amino)ethane-1-sulfonic acid]
530 nM	386 nM	> 50000 nM	COc1ccc(-c2[nH]c3ccc(-c4nnc(CNCCOC(C)C)o4)cc3c2C(C)C)cc1OC [Example 114, N-((5-(2-(3,4-dimethoxyphenyl)-3-isopropyl-1H-indol-5-yl)-1,3,4-oxadiazol-2-yl)methyl)-2-isopropoxyethan-1-amine]
202 nM	579 nM	> 50000 nM	COc1ccc(-c2[nH]c3ccc(-c4nnc(CN5CCOCC5)o4)cc3c2C(C)C)cc1OC [Example 115, 4-((5-(2-(3,4-dimethoxyphenyl)-3-isopropyl-1H-indol-5-yl)-1,3,4-oxadiazol-2-yl)methyl)morpholine]
395 nM	331 nM	> 50000 nM	COc1ccc(-c2[nH]c3ccc(-c4nnc(CN5CCN(C(C)=O)CC5)o4)cc3c2C(C)C)cc1OC [Example 116, 1-(4-((5-(2-(3,4-dimethoxyphenyl)-3-isopropyl-1H-indol-5-yl)-1,3,4-oxadiazol-2-yl)methyl)piperazin-1-yl)ethan-1-one]
50 nM	704 nM	> 50000 nM	COc1ccc(-c2[nH]c3ccc(-c4nnc(CN5CC[C@H](NC(C)=O)C5)o4)cc3c2C(C)C)cc1OC [Example 117, (S)—N-(1-((5-(2-(3,4-dimethoxyphenyl)-3-isopropyl-1H-indol-5-yl)-1,3,4-oxadiazol-2-yl)methyl)pyrrolidin-3-yl)acetamide]
362 nM	227 nM	18600 nM	COCCN(CCOC)Cc1nnc(-c2ccc3[nH]c(-c4ccc(OC)c(OC)c4)c(C(C)C)c3c2)o1 [Example 118, N-((5-(2-(3,4-dimethoxyphenyl)-3-isopropyl-1H-indol-5-yl)-1,3,4-oxadiazol-2-yl)methyl)-2-methoxy-N-(2-methoxyethyl)ethan-1-amine]
99 nM	106 nM	14400 nM	COc1ccc(-c2[nH]c3ccc(-c4nnc(CN5CCCN(C(C)=O)CC5)o4)cc3c2C(C)C)cc1OC [Example 119, 1-(4-((5-(2-(3,4-dimethoxyphenyl)-3-isopropyl-1H-indol-5-yl)-1,3,4-oxadiazol-2-yl)methyl)-1,4-diazepan-1-yl)ethan-1-one]
222 nM	371 nM	> 50000 nM	COc1ccc(-c2[nH]c3ccc(-c4nnc(CN5CCNC(=O)C5)o4)cc3c2C(C)C)cc1OC [Example 120, 4-((5-(2-(3,4-dimethoxyphenyl)-3-isopropyl-1H-indol-5-yl)-1,3,4-oxadiazol-2-yl)methyl)piperazin-2-one]
166 nM	108 nM	> 50000 nM	COCCN(C)Cc1nnc(-c2ccc3[nH]c(-c4ccc(OC)c(OC)c4)c(C(C)C)c3c2)o1 [Example 121, N-((5-(2-(3,4-dimethoxyphenyl)-3-isopropyl-1H-indol-5-yl)-1,3,4-oxadiazol-2-yl)methyl)-2-methoxy-N-methylethan-1-amine]
279 nM	225 nM	> 50000 nM	COc1ccc(-c2[nH]c3ccc(-c4nnc(CN5CCC[C@H]5C(N)=O)o4)cc3c2C(C)C)cc1OC [Example 122, (S)-1-((5-(2-(3,4-dimethoxyphenyl)-3-isopropyl-1H-indol-5-yl)-1,3,4-oxadiazol-2-yl)methyl)pyrrolidine-2-carboxamide]
213 nM	703 nM	> 50000 nM	C#CCN(C)Cc1nnc(-c2ccc3[nH]c(-c4ccc(OC)c(OC)c4)c(C(C)C)c3c2)o1 [Example 123, N-((5-(2-(3,4-dimethoxyphenyl)-3-isopropyl-1H-indol-5-yl)-1,3,4-oxadiazol-2-yl)methyl)-N-methylprop-2-yn-1-amine]
108 nM	182 nM	9200 nM	COc1ccc(-c2[nH]c3ccc(-c4nnc(C5CCNCC5)[nH]4)cc3c2C(C)C)cc1OC [Example 124, 2-(3,4-dimethoxyphenyl)-3-isopropyl-5-(5-(piperidin-4-yl)-4H-1,2,4-triazol-3-yl)-1H-indole]
40 nM	183 nM	776 nM	CC(C)c1c(-c2ccnc3[nH]ncc23)[nH]c2ccc(-c3nnc(C(=O)N4CCCN(C)CC4)o3)cc12 [Example 125, (5-(3-isopropyl-2-(1H-pyrazolo[3,4-b]pyridin-4-yl)-1H-indol-5-yl)-1,3,4-oxadiazol-2-yl)(4-methyl-1,4-diazepan-1-yl)methanone]
3.4 nM	45 nM	389 nM	CC(C)c1c(-c2ccnc3[nH]ncc23)[nH]c2ccc(-c3nnc([C@H]4CCCNC4)o3)cc12 [Example 126, (S)-2-(3-isopropyl-2-(1H-pyrazolo[3,4-b]pyridin-4-yl)-1H-indol-5-yl)-5-(piperidin-3-yl)-1,3,4-oxadiazole]
6.5 nM	21 nM	1580 nM	COc1ccc(-c2[nH]c3ccc(-c4nc(C(=O)N5CC6CNCC6C5)co4)cc3c2C(C)C)cc1OC (stereo not drawn) [Example 127, (2-(2-(3,4-dimethoxyphenyl)-3-isopropyl-1H-indol-5-yl)oxazol-4-yl)(hexahydropyrrolo[3,4-c]pyrrol-2(1H)-yl)methanone]
167 nM	1100 nM	34100 nM	CC(C)c1c(-c2ccnc3n[nH]cc23)[nH]c2ccc(-c3nnc(CN4CCCC4)o3)cc12 [Example 128, 2-(3-isopropyl-2-(2H-pyrazolo[3,4-b]pyridin-4-yl)-1H-indol-5-yl)-5-(pyrrolidin-1-ylmethyl)-1,3,4-oxadiazole]
